Results as given in patent US11939314B2, “Quinolin-2-one derivatives” (MERCK PATENT GMBH, priority 2016, dated 2024).

Assays:
c-Kit(V654A) = biological target: T1, c-Kit(V654A) (Homo sapiens, UniProt P10721, V654A); assay: c-Kit(V654A) assay; assay type: biochemical; settings: recombinant human c-Kit aa 544-end, 200 μM ATP, 1.4E-06 means 1.4×10^−6, read-out: Inhibition (IC50) of c-KIT (V654A)
T1 construct: amino acids 544-end containing the V654A mutation; GST (N)
In short: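 Radiometric filter-binding read-out: substrate 33P incorporation counted by scintillation after P30 filtermat washes in 75 mM phosphoric acid and methanol. Enzyme: N-GST recombinant human c-Kit aa 544-end carrying V654A.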

PDGFRalpha(V561D) = biological target: T2, PDGFRalpha(V561D) (Homo sapiens, UniProt P16234, V561D); assay: PDGFRalpha(V561D) assay; assay type: biochemical; settings: recombinant human PDGFRalpha aa 550-end, 200 μM ATP, 1.4E-06 means 1.4×10^−6, read-out: Inhibition (IC50) of PDGFRα (V561D)
T2 construct: recombinant human PDGFRalpha, amino acids 550end containing the V561 D mutation; 6His (N)
In short: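 Radiometric filter-binding assay: substrate phosphorylation by recombinant N-His-tagged human PDGFRα 550-end V561D was quenched with 3% phosphoric acid after 40 min at room temperature, then counted.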

[1] = tested on: GISTs with primary mutation; settings: secondary resistance emerges in almost all tumors; cited from earlier work

T1 sequence (P10721 544-976 V654A): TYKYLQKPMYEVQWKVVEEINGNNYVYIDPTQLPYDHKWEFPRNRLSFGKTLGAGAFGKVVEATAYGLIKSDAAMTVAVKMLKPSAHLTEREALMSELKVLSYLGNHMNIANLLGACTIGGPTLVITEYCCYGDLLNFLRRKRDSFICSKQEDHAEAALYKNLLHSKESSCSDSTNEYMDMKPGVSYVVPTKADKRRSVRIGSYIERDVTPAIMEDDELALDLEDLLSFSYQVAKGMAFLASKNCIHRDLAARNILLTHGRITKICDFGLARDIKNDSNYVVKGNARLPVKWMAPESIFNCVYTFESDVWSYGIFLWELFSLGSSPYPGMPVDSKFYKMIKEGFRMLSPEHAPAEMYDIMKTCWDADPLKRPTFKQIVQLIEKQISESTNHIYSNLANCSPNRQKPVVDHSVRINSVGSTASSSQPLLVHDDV
T2 sequence (P16234 550-1089 V561D): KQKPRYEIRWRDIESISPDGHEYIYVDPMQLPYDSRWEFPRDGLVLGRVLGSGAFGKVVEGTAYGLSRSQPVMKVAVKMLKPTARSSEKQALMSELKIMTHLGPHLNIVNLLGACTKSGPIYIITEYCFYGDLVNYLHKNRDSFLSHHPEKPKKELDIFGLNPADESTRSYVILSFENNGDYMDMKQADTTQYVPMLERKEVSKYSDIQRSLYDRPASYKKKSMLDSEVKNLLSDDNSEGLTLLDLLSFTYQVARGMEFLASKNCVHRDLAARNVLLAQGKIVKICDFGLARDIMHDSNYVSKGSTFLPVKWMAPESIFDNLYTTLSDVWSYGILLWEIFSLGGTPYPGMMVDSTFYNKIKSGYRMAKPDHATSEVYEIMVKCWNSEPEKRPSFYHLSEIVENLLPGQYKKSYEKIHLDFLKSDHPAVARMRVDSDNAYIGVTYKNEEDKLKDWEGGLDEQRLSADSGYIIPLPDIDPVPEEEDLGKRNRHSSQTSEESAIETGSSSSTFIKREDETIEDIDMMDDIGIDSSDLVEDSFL

Row | Structure (SMILES) | IC50 (c-Kit(V654A)) | IC50 (PDGFRalpha(V561D)) | initial response rate [1]
1 | CN(C)[C@@H]1CCCN(C(=O)c2ccc(-n3cc(-c4cc5cc(F)ccc5[nH]c4=O)nn3)cc2)C1 [A331, 3-{1-[4-((R)-3-dimethylamino-piperidine-1-carbonyl)-phenyl]-1H-[1,2,3]triazol-4-yl}-6-fluoro-1H-quinolin-2-one] | 63 nM | 570 nM | –
2 | CN(C)[C@H]1CCCN(C(=O)c2ccc(-n3cc(-c4cc5cc(F)ccc5[nH]c4=O)nn3)cc2)C1 [A332, 3-{1-[4-((S)-3-dimethylamino-piperidine-1-carbonyl)-phenyl]-1H-[1,2,3]triazol-4-yl}-6-fluoro-1H-quinolin-2-one] | 71 nM | 100 nM | –
3 | CN(C)[C@@H]1CCCN(C(=O)c2ccc(-n3cc(-c4cc5ccc(F)cc5[nH]c4=O)nn3)cc2)C1 [A333, 3-{1-[4-((R)-3-dimethylamino-piperidine-1-carbonyl)-phenyl]-1H-[1,2,3]triazol-4-yl}-7-fluoro-1H-quinolin-2-one] | 63 nM | 120 nM | –
4 | CN(C)C[C@H]1CCN(C(=O)c2ccc(-n3cc(-c4cc5cc(F)ccc5[nH]c4=O)nn3)cc2)C1 [A334, 3-{1-[4-((R)-3-dimethylaminomethyl-pyrrolidine-1-carbonyl)-phenyl]-1H-[1,2,3]triazol-4-yl}-6-fluoro-1H-quinolin-2-one] | 15 nM | 41 nM | –
5 | CCN(CC)[C@H]1CCCN(C(=O)c2ccc(-n3cc(-c4cc5cc(F)ccc5[nH]c4=O)nn3)cc2)C1 [A337, 3-{1-[4-((S)-3-diethylamino-piperidine-1-carbonyl)-phenyl]-1H-[1,2,3]triazol-4-yl}-6-fluoro-1H-quinolin-2-one] | 75 nM | 230 nM | –
6 | CCN(CC)[C@@H]1CCCN(C(=O)c2ccc(-n3cc(-c4cc5cc(F)ccc5[nH]c4=O)nn3)cc2)C1 [A338, 3-{1-[4-((R)-3-diethylamino-piperidine-1-carbonyl)-phenyl]-1H-[1,2,3]triazol-4-yl}-6-fluoro-1H-quinolin-2-one] | 39 nM | 160 nM | –
7 | CNc1ccc(-n2cc(-c3cc4cc(F)ccc4[nH]c3=O)nn2)cc1 [A342, 6-fluoro-3-[1-(4-methylamino-phenyl)-1H-[1,2,3]triazol-4-yl]-1H-quinolin-2-one] | 25 nM | 36 nM | –
8 | CN(C(=O)[C@@H]1CCCO1)c1ccc(-n2cc(-c3cc4cc(F)ccc4[nH]c3=O)nn2)cc1 [A344, (S)-tetrahydro-furan-2-carboxylic acid {4-[4-(6-fluoro-2-oxo-1,2-dihydro-quinolin-3-yl)-[1,2,3]triazol-1-yl]-phenyl}-methyl-amide] | 9.7 nM | 16 nM | –
9 | CC(=O)N(C)c1ccc(-n2cc(-c3cc4cc(F)c(F)cc4[nH]c3=O)nn2)cc1 [A352, N-{4-[4-(6,7-difluoro-2-oxo-1,2-dihydro-quinolin-3-yl)-[1,2,3]triazol-1-yl]-phenyl}-N-methyl-acetamide] | 260 nM | 440 nM | –
10 | CN1Cc2cc(-n3cc(-c4cc5cc(F)ccc5[nH]c4=O)nn3)ccc2C1=O [A354, 6-fluoro-3-[1-(2-methyl-1-oxo-2,3-dihydro-1H-isoindol-5-yl)-1H-[1,2,3]triazol-4-yl]-1H-quinolin-2-one] | 3100 nM | 420 nM | –
11 | CN1CC[C@@H](Oc2ccc(-n3cc(-c4cc5cc(F)ccc5[nH]c4=O)nn3)cc2)C1 [A367, 6-fluoro-3-{1-[4-((R)-1-methyl-pyrrolidin-3-yloxy)-phenyl]-1H-[1,2,3]triazol-4-yl}-1H-quinolin-2-one] | 19 nM | 70 nM | –
12 | CN1CC[C@@H](Oc2ccc(-n3cc(-c4cc5cc(Cl)ccc5[nH]c4=O)nn3)cc2)C1 [A369, 6-chloro-3-{1-[4-((R)-1-methyl-pyrrolidin-3-yloxy)-phenyl]-1H-[1,2,3]triazol-4-yl}-1H-quinolin-2-one] | 13 nM | 34 nM | –
13 | CN1CCC(Cc2ccc(-n3cc(-c4cc5cc(F)ccc5[nH]c4=O)nn3)cc2)CC1 [A371, 6-fluoro-3-{1-[4-(1-methyl-piperidin-4-ylmethyl)-phenyl]-1H-[1,2,3]triazol-4-yl}-1H-quinolin-2-one] | 34 nM | 11 nM | –
14 | Cc1ccc(NC(=O)c2ccc(CN3CCN(C)CC3)cc2)cc1Nc1nccc(-c2cccnc2)n1 [Imatinib, imatinib] | – | – | ~70%

More lines, in order of falling IC50 (c-Kit(V654A)), values ahead:

Row | IC50 (c-Kit(V654A)) | IC50 (PDGFRalpha(V561D)) | Structure (SMILES) | initial response rate [1]
15 | 180 nM | 240 nM | CN(C)[C@H]1CCCN(C(=O)c2ccc(-n3cc(-c4cc5ccc(F)cc5[nH]c4=O)nn3)cc2)C1 [A336, 3-{1-[4-((S)-3-dimethylamino-piperidine-1-carbonyl)-phenyl]-1H-[1,2,3]triazol-4-yl}-7-fluoro-1H-quinolin-2-one] | –
16 | 170 nM | 680 nM | CN(C)C[C@H]1CCN(C(=O)c2ccc(-n3cc(-c4cc5cc(F)c(F)cc5[nH]c4=O)nn3)cc2)C1 [A335, 3-{1-[4-((R)-3-dimethylaminomethyl-pyrrolidine-1-carbonyl)-phenyl]-1H-[1,2,3]triazol-4-yl}-6,7-difluoro-1H-quinolin-2-one] | –
17 | 94 nM | 190 nM | CC(=O)N(C)c1ccc(-n2cc(-c3cc4cc(F)ccc4[nH]c3=O)nn2)cc1 [A353, N-{4-[4-(6-fluoro-2-oxo-1,2-dihydro-quinolin-3-yl)-[1,2,3]triazol-1-yl]-phenyl}-N-methyl-acetamide] | –
18 | 31 nM | 58 nM | CN1CC[C@H](Oc2ccc(-n3cc(-c4cc5cc(F)ccc5[nH]c4=O)nn3)cc2)C1 [A370, 6-fluoro-3-{1-[4-((S)-1-methyl-pyrrolidin-3-yloxy)-phenyl]-1H-[1,2,3]triazol-4-yl}-1H-quinolin-2-one] | –
19 | 23 nM | 34 nM | CN1CC[C@H](Oc2ccc(-n3cc(-c4cc5cc(Cl)ccc5[nH]c4=O)nn3)cc2)C1 [A368, 6-chloro-3-{1-[4-((S)-1-methyl-pyrrolidin-3-yloxy)-phenyl]-1H-[1,2,3]triazol-4-yl}-1H-quinolin-2-one] | –
20 | 12 nM | 1500 nM | CN(C(=O)C1CCOCC1)c1ccc(-n2cc(-c3cc4cc(F)ccc4[nH]c3=O)nn2)cc1 [A345, tetrahydro-pyran-4-carboxylic acid {4-[4-(6-fluoro-2-oxo-1,2-dihydro-quinolin-3-yl)-[1,2,3]triazol-111]-phenyl}-methyl-amide] | –
21 | 9 nM | 85 nM | CN(C(=O)[C@H]1CCCO1)c1ccc(-n2cc(-c3cc4cc(F)ccc4[nH]c3=O)nn2)cc1 [A343, (R)-tetrahydro-furan-2-carboxylic acid {4-[4-(6-fluoro-2-oxo-1,2-dihydro-quinolin-3-yl)-[1,2,3]triazol-1-yl]-phenyl}-methyl-amide] | –
